# Measurements reported in PubChem BioAssay (NCI).
#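 The compound was tested at five concentrations on cells cultured in 96-well plates, with a 48-hour exposure period. Definition used: TGI = concentration required for complete inhibition of growth.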
# Tested on: HCT-116 colon
# Experiment: NCI-60 cell line screen, 48 h
row,Compound,TGI [µM]
1,COC(=O)C1=C(C)N2[C@H](C(=O)O)CO[C@@]2(C)[C@H](C(=O)OC)[C@H]1c1cccc([N+](=O)[O-])c1,> 100
2,Cc1ccc(/C=C2\CCCC(CN3CCCCC3)C2=O)cc1 (stereo not drawn),3.26
3,CCOc1cc(NC(C)=O)ccc1C(=O)NN1C(=O)C(Cl)C1c1ccco1 (stereo not drawn),49.3
4,OC(c1ccc(-c2ccccc2)cc1)C(F)(F)c1nc2ccccc2o1 (stereo not drawn),> 100
5,COC(=O)c1cnn2c1n[n+]([O-])c1ccccc12,> 100
6,Nc1ccc(CCN2CCN(CCCc3ccccc3)CC2)cc1,> 100
7,C[C@H]1C=C2[C@@H]3CC(C)(C(=O)O)CC[C@]3(C)CC[C@]2(C)[C@]2(C)CC[C@H]3C(C)(C)[C@@H](OC(=O)c4cccc5c(=O)c6ccccc6[nH]c45)CC[C@]3(C)[C@@H]12 (stereo partly drawn),> 100
8,COC(=O)c1c(OC(C)=O)ccc2c1c1c(OC(C)=O)c3ccccc3c(OC(C)=O)c1n2Cc1ccccc1,11.5
9,COc1ccc2oc(=N)c(C(=O)Nc3ccccn3)cc2c1,> 100
10,N#C/C(=C\c1c[nH]c2ccccc12)C(=O)c1ccc(O)c(O)c1,> 84.8
11,CN(C)CCCN1c2ccccc2CCc2ccc([N+](=O)[O-])cc21,> 100
12,CC(C)(C)OC(=O)NCCC1CN(C(=O)c2ccccc2)c2ccccc21 (stereo not drawn),43
13,COC(=O)C1=C(OC(=O)c2ccccc2)C(C(=O)OC)[C@]2(O)[C@@H](C(=O)OC)[C@H]1C[C@@H](c1ccccc1)[C@@H]2C(=O)OC (stereo partly drawn),14.2
14,O=C(/C=C/c1csc(-c2ccccc2)n1)NCc1ccc(C(=O)NCc2ccccc2)cc1,> 100

# Tested on: HS 578T breast
# Experiment: NCI-60 cell line screen, 48 h
row,Compound,TGI [µM]
1,C/C(=C/CC[C@]1(CO)CC[C@]2(CO)[C@H](CC[C@@H]3[C@@]4(C)CC[C@H](OC5OCC(O)C(O)C5OC5OC(CO)C(O)C(O)C5O)C(C)(C)[C@@H]4CC[C@]32C)[C@H]1O)CO (stereo partly drawn),> 100
2,C=CCOC(=O)C1C2OC3(C(C(=O)OC)=C2C(=O)OC)c2ccccc2CCC13 (stereo not drawn),> 10
3,Cc1ccc(/C(O)=C/C(=O)C(=O)NN=C(c2ccccc2)c2ccccc2)cc1,> 100
4,CC[C@@H](/C=C\CCC(=O)C[C@H](O)CCC=C(C)C)O[Si](C(C)C)(C(C)C)C(C)C,> 100
5,Cc1ccc2nc(NC(=O)/C(Cc3nc4ccc(Cl)cc4[nH]c3=O)=N\NC(C)(C)C)sc2c1,73
6,Cc1cc(O)c(C(C)C)cc1C1(c2cc(C(C)C)c(O)cc2C)OC(=O)c2ccccc21,6.88
7,CCOC(=O)c1ccc(C(=O)C(C(C)=O)C(=O)OC(C)(C)C)[nH]1 (stereo not drawn),> 100
8,O=c1onc2c3ccccc3ncn12,> 100
9,CC(C)[C@@H]1ON1C(C)c1ccccc1 (stereo partly drawn),> 100
10,O=C(Nc1cccc(F)c1)c1cc2ccc(O)cc2oc1=Nc1ccccc1F,14.1
11,COc1ccc(C(=O)c2[nH]c(Nc3ccc(Cl)cc3)c(C(=S)Nc3ccccc3)c2N)cc1,> 100
12,CC(C)(CC(O)C#N)/[N+]([O-])=[N+](\[O-])C(C)(C)CC(O)C#N (stereo not drawn),> 100
13,COc1ccc(-n2cnc3c(NC(CCSC)C(=O)O)ncnc32)cc1 (stereo not drawn),> 100
14,COC(=O)C1=C(C)N2[C@H](C(=O)O)CO[C@@]2(C)[C@H](C(=O)OC)[C@H]1c1cccc([N+](=O)[O-])c1,> 100
15,Cc1ccc(/C=C2\CCCC(CN3CCCCC3)C2=O)cc1 (stereo not drawn),6.59
16,CCOc1cc(NC(C)=O)ccc1C(=O)NN1C(=O)C(Cl)C1c1ccco1 (stereo not drawn),65.5
17,OC(c1ccc(-c2ccccc2)cc1)C(F)(F)c1nc2ccccc2o1 (stereo not drawn),70.2
18,COC(=O)c1cnn2c1n[n+]([O-])c1ccccc12,> 100
19,Nc1ccc(CCN2CCN(CCCc3ccccc3)CC2)cc1,> 100
20,C[C@H]1C=C2[C@@H]3CC(C)(C(=O)O)CC[C@]3(C)CC[C@]2(C)[C@]2(C)CC[C@H]3C(C)(C)[C@@H](OC(=O)c4cccc5c(=O)c6ccccc6[nH]c45)CC[C@]3(C)[C@@H]12 (stereo partly drawn),> 100
21,COC(=O)c1c(OC(C)=O)ccc2c1c1c(OC(C)=O)c3ccccc3c(OC(C)=O)c1n2Cc1ccccc1,> 50
22,COc1ccc2oc(=N)c(C(=O)Nc3ccccn3)cc2c1,> 100
23,N#C/C(=C\c1c[nH]c2ccccc12)C(=O)c1ccc(O)c(O)c1,> 100
24,CN(C)CCCN1c2ccccc2CCc2ccc([N+](=O)[O-])cc21,> 100
25,CC(C)(C)OC(=O)NCCC1CN(C(=O)c2ccccc2)c2ccccc21 (stereo not drawn),> 100
26,COC(=O)C1=C(OC(=O)c2ccccc2)C(C(=O)OC)[C@]2(O)[C@@H](C(=O)OC)[C@H]1C[C@@H](c1ccccc1)[C@@H]2C(=O)OC (stereo partly drawn),72.2
27,O=C(/C=C/c1csc(-c2ccccc2)n1)NCc1ccc(C(=O)NCc2ccccc2)cc1,> 100

# Tested on: MDA-MB-435
# Experiment: NCI-60 cell line screen, 48 h
row,Compound,TGI [µM]
1,C/C(=C/CC[C@]1(CO)CC[C@]2(CO)[C@H](CC[C@@H]3[C@@]4(C)CC[C@H](OC5OCC(O)C(O)C5OC5OC(CO)C(O)C(O)C5O)C(C)(C)[C@@H]4CC[C@]32C)[C@H]1O)CO (stereo partly drawn),> 100
2,C=CCOC(=O)C1C2OC3(C(C(=O)OC)=C2C(=O)OC)c2ccccc2CCC13 (stereo not drawn),> 10
3,Cc1ccc(/C(O)=C/C(=O)C(=O)NN=C(c2ccccc2)c2ccccc2)cc1,> 100
4,CC[C@@H](/C=C\CCC(=O)C[C@H](O)CCC=C(C)C)O[Si](C(C)C)(C(C)C)C(C)C,> 100
5,Cc1ccc2nc(NC(=O)/C(Cc3nc4ccc(Cl)cc4[nH]c3=O)=N\NC(C)(C)C)sc2c1,> 100
6,Cc1cc(O)c(C(C)C)cc1C1(c2cc(C(C)C)c(O)cc2C)OC(=O)c2ccccc21,3.01
7,CCOC(=O)c1ccc(C(=O)C(C(C)=O)C(=O)OC(C)(C)C)[nH]1 (stereo not drawn),> 100
8,O=c1onc2c3ccccc3ncn12,> 100
9,CC(C)[C@@H]1ON1C(C)c1ccccc1 (stereo partly drawn),> 100
10,O=C(Nc1cccc(F)c1)c1cc2ccc(O)cc2oc1=Nc1ccccc1F,14.2
11,COc1ccc(C(=O)c2[nH]c(Nc3ccc(Cl)cc3)c(C(=S)Nc3ccccc3)c2N)cc1,> 100
12,CC(C)(CC(O)C#N)/[N+]([O-])=[N+](\[O-])C(C)(C)CC(O)C#N (stereo not drawn),> 100
13,COc1ccc(-n2cnc3c(NC(CCSC)C(=O)O)ncnc32)cc1 (stereo not drawn),> 100
14,COC(=O)C1=C(C)N2[C@H](C(=O)O)CO[C@@]2(C)[C@H](C(=O)OC)[C@H]1c1cccc([N+](=O)[O-])c1,> 100
15,Cc1ccc(/C=C2\CCCC(CN3CCCCC3)C2=O)cc1 (stereo not drawn),3.81
16,CCOc1cc(NC(C)=O)ccc1C(=O)NN1C(=O)C(Cl)C1c1ccco1 (stereo not drawn),32.3
17,OC(c1ccc(-c2ccccc2)cc1)C(F)(F)c1nc2ccccc2o1 (stereo not drawn),> 100
18,COC(=O)c1cnn2c1n[n+]([O-])c1ccccc12,> 100
19,Nc1ccc(CCN2CCN(CCCc3ccccc3)CC2)cc1,> 100
20,C[C@H]1C=C2[C@@H]3CC(C)(C(=O)O)CC[C@]3(C)CC[C@]2(C)[C@]2(C)CC[C@H]3C(C)(C)[C@@H](OC(=O)c4cccc5c(=O)c6ccccc6[nH]c45)CC[C@]3(C)[C@@H]12 (stereo partly drawn),> 100
21,COC(=O)c1c(OC(C)=O)ccc2c1c1c(OC(C)=O)c3ccccc3c(OC(C)=O)c1n2Cc1ccccc1,27.9
22,COc1ccc2oc(=N)c(C(=O)Nc3ccccn3)cc2c1,> 100
23,N#C/C(=C\c1c[nH]c2ccccc12)C(=O)c1ccc(O)c(O)c1,> 100
24,CN(C)CCCN1c2ccccc2CCc2ccc([N+](=O)[O-])cc21,36
25,CC(C)(C)OC(=O)NCCC1CN(C(=O)c2ccccc2)c2ccccc21 (stereo not drawn),84.7
26,COC(=O)C1=C(OC(=O)c2ccccc2)C(C(=O)OC)[C@]2(O)[C@@H](C(=O)OC)[C@H]1C[C@@H](c1ccccc1)[C@@H]2C(=O)OC (stereo partly drawn),10.8
27,O=C(/C=C/c1csc(-c2ccccc2)n1)NCc1ccc(C(=O)NCc2ccccc2)cc1,> 100
